The structures appear in SMILES notation. Where a name gives a salt, the structure may show the parent alone. Read-outs that look alike come from different tables or passages of the source.

The subject of one assay is S. epidermidis IID866. Description: Antibacterial spectra (MIC), method of the Society of Chemotherapy in Japan. The format is cell-based. The note with it: Staphylococcus epidermidis; S. epidermidis IID866, Gram +, 10^6 cells/ml; read-out: Minimum inhibitory concentration for growth.
A further assay has as its system S. pneumoniae type III. The description is as above. Format: cell-based. As to conditions: Streptococcus pneumoniae, Gram +, 10^6 cells/ml, read-out: Minimum inhibitory concentration for growth.
In the next assay the test system is S. enteritidis IID604. The description is as above. The format is cell-based. The note with it: Salmonella enterica; S. enteritidis IID604, Gram -, 10^6 cells/ml; read-out: Minimum inhibitory concentration for growth.
For the next assay, the system named is P. mirabilis IID994. The description is as above. Format: cell-based. As to conditions: Proteus mirabilis; P. mirabilis IID994, Gram -, 10^6 cells/ml; read-out: Minimum inhibitory concentration for growth.
In a further assay the test system is S. pneumoniae S-4288. The assay is described as above. Format: cell-based. The note with it: Streptococcus pneumoniae, S4288; S. pneumoniae S-4288, Gram +, 10^6 cells/ml; read-out: Minimum inhibitory concentration for growth.
In assay [1] the test system is S. aureus Smith. The assay is described as above. The format is cell-based. The note with it: Staphylococcus aureus, Gram +, 10^6 cells/ml, read-out: Minimum inhibitory concentration for growth.
In the next assay the test system is C. freundii IID976. The assay is described as above. The format is cell-based. The note with it: Citrobacter freundii; C. freundii IID976, Gram -, 10^6 cells/ml; read-out: Minimum inhibitory concentration for growth.
A further assay relates to S. pneumoniae IID552. The description is as above. Format: cell-based. As to conditions: Streptococcus pneumoniae; S. pneumoniae IID552, Gram +, 10^6 cells/ml; read-out: Minimum inhibitory concentration for growth.
In the next assay the test system is E. faecalis IID682. Described as above. The format is cell-based. As to conditions: Enterococcus faecalis; E. faecalis IID682, Gram +, 10^6 cells/ml; read-out: Minimum inhibitory concentration for growth.
The test system of a further assay is C. perfringens KYA13123. The experiment in a line: microbe, parasite or virus in culture. Format: cell-based. As to conditions: Clostridium perfringens, KYA13123, read-out: Minimum inhibitory concentration for growth.
For another assay, the system named is S. aureus 209P. Description: Antibacterial spectra (MIC), method of the Society of Chemotherapy in Japan. Format: cell-based. As to conditions: Staphylococcus aureus, Gram +, 10^6 cells/ml, read-out: Minimum inhibitory concentration for growth.
Another assay deals with P. vulgaris IFO3167. Described as above. Format: cell-based. The note with it: Proteus vulgaris; P. vulgaris IFO3167, Gram -, 10^6 cells/ml; read-out: Minimum inhibitory concentration for growth.
The test system of a further assay is A. anitratus IID876. The assay is described as above. Format: cell-based. The note with it: Acinetobacter calcoaceticus; A. anitratus IID876, Gram -, 10^6 cells/ml; read-out: Minimum inhibitory concentration for growth.
For the next assay, the system named is P. aeruginosa V-1. The assay is described as above. Format: cell-based. The note with it: Pseudomonas aeruginosa, V1; P. aeruginosa V-1, Gram -, 10^6 cells/ml; read-out: Minimum inhibitory concentration for growth.
A further assay deals with K. pneumoniae KY6445. The description is as above. The format is cell-based. The note with it: Klebsiella pneumoniae; K. pneumoniae KY6445, Gram -, 10^6 cells/ml; read-out: Minimum inhibitory concentration for growth.
The subject of another assay is E. coli ML 4707. The experiment in a line: Therapeutic effect on the systemic infection of mouse. The format is in vivo, ICR mice. The note with it: Escherichia coli, ML4707, po, 1 h, read-out: ED50 E. coli. The procedure: (§1) The infectious bacteria were injected intraperitoneally using five ICR mice per group. one hour later, 5 doses of drugs were administered once orally, respectively, and, from a curve of survival rate of mouse as a function of dose of drug, a dose (EDso) by which 50% of animals escape the death to heal was determined.

The subject of assay [2] is S. aureus Smith. The description is as above. Format: in vivo, ICR mice. The note with it: Staphylococcus aureus, po, 1 h, read-out: ED50 S. aureus. The procedure:
as §1

For the next assay, the system named is E. coli NIHJ JC-2. The experiment in a line: Antibacterial spectra (MIC), method of the Society of Chemotherapy in Japan. The format is cell-based. The note with it: Escherichia coli, NIHJJC2; E. coli NIHJ JC-2, Gram -, 10^6 cells/ml; read-out: Minimum inhibitory concentration for growth.
A further assay relates to E. cloacae IID977. Described as above. Format: cell-based. As to conditions: Enterobacter cloacae; E. cloacae IID977, Gram -, 10^6 cells/ml; read-out: Minimum inhibitory concentration for growth.
The next assay concerns P. aeruginosa IFO12689. The description is as above. Format: cell-based. As to conditions: Pseudomonas aeruginosa; P. aeruginosa IFO12689, Gram -, 10^6 cells/ml; read-out: Minimum inhibitory concentration for growth.
A further assay concerns P. aeruginosa IID1210. The description is as above. The format is cell-based. As to conditions: Pseudomonas aeruginosa; P. aeruginosa IID1210, Gram -, 10^6 cells/ml; read-out: Minimum inhibitory concentration for growth.
The test system of the next assay is M. morganii IID602. Described as above. The format is cell-based. The note with it: Morganella morganii; M. morganii IID602, Gram -, 10^6 cells/ml; read-out: Minimum inhibitory concentration for growth.
The test system of a further assay is S. sonnei IID969. Described as above. The note with it: Shigella sonnei; S. sonnei IID969, Gram -, 10^6 cells/ml; read-out: Minimum inhibitory concentration for growth. Format: cell-based. The procedure: The antibacterial test was performed according to the method designated by Society of Chemotherapy in Japan.
Another assay relates to S. marcescens IID618. The assay is described as above. The format is cell-based. As to conditions: Serratia marcescens; S. marcescens IID618, Gram -, 10^6 cells/ml; read-out: Minimum inhibitory concentration for growth.
Another assay deals with S. pyogenes S-8. The description is as above. Format: cell-based. The note with it: Streptococcus pyogenes, S8; S. pyogenes S-8, Gram +, 10^6 cells/ml; read-out: Minimum inhibitory concentration for growth.
In the next assay the test system is B. thetaiotaomicron 0661. The assay is described as above. The format is cell-based. As to conditions: Bacteroides thetaiotaomicron; B. thetaiotaomicron 0661, Gram -, 10^6 cells/ml; read-out: Minimum inhibitory concentration for growth.
The subject of a further assay is P. maltophilia GIFU2491. Described as above. The note with it: Stenotrophomonas maltophilia; P. maltophilia GIFU2491, Gram -, 10^6 cells/ml; read-out: Minimum inhibitory concentration for growth. The format is cell-based.
Setting [3] is: E. coli ML 4707, 8.8x10^6 CFU/mouse intraperitoneally, drug once orally one hour later, dose at which 50% of ICR mice survive.
[4] abbreviates: S. aureus Smith, 4.8x10^6 CFU/mouse intraperitoneally, drug once orally one hour later, dose at which 50% of ICR mice survive.

As a reminder, the ED50 is the midpoint of the dose-response relation. In the case of `COc1c(N2C[C@@H](N)[C@@H](C)C2)c(F)cc2c(=O)c(C(=O)O)cn(C3CC3)c12` [Example 34, 7-[3(S)amino-4(S)-methyl-1-pyrrolidinyl]-1-cyclopropyl-6-fluoro-1,4-dihydro-8-methoxy-4-oxo-3-quinolinecarboxyic acid hydrochloride], the MIC was determined as 0.05 µg/mL with S. epidermidis IID866; 0.05 µg/mL with S. pneumoniae type III; 0.05 µg/mL in the assay with S. enteritidis IID604; 0.025 µg/mL with P. mirabilis IID994; 0.2 µg/mL in the assay with S. pneumoniae S-4288; 0.025 µg/mL in the assay with S. aureus Smith [1]. The MIC with C. freundii IID976 was determined as 0.05 µg/mL; in the assay with S. pneumoniae IID552 it was 0.2 µg/mL; in the assay with E. faecalis IID682, 0.2 µg/mL; with C. perfringens KYA13123 it was 0.2 µg/mL; in the assay with S. aureus 209P, 0.025 µg/mL; in the assay with P. vulgaris IFO3167, 0.025 µg/mL. For the same molecule, the values for the MIC with A. anitratus IID876, in the assay with P. aeruginosa V-1 and with K. pneumoniae KY6445 were 0.05 µg/mL, 0.2 µg/mL and 0.025 µg/mL, respectively. Besides, the ED50 stood at 0.26 mg/kg with E. coli ML 4707 (setting [3]) and 1.39 mg/kg with S. aureus Smith [2] (setting [4]).
On to `O=C(O)c1cn(C2CC2)c2cc(N3CCNCC3)c(F)cc2c1=O` [CPFX, Ciprofloxacin, reference compound], for which the values for the ED50 in the assay with E. coli ML 4707 and in the assay with S. aureus Smith [2] were 0.49 mg/kg and 20.3 mg/kg, respectively.
In the case of `COc1c(N2C[C@H](C)[C@@H](N)C2)c(F)cc2c(=O)c(C(=O)O)cn(C3CC3)c12` [Example 36, 7-[3(R)-amino-4(S)-methyl-I-pyrrolidinyl]-I-cyclopropyl-6-fluoro-1-4-dihydro-8-methoxy-4-oxo-3-quinolinecarboxylic acid hydrochloride], the MIC is 0.025 µg/mL in the assay on E. coli NIHJ JC-2; 0.2 µg/mL with E. cloacae IID977; 0.2 µg/mL in the assay on S. pneumoniae type III; 1.56 µg/mL with P. aeruginosa IFO12689; 1.56 µg/mL with P. aeruginosa IID1210; 0.2 µg/mL with M. morganii IID602. The MIC turned out to be 0.05 µg/mL in the assay on S. aureus 209P; 0.025 µg/mL in the assay with S. sonnei IID969; 0.2 µg/mL with S. marcescens IID618; 0.025 µg/mL in the assay on P. vulgaris IFO3167; 0.2 µg/mL in the assay on S. pyogenes S-8; 1.56 µg/mL in the assay on B. thetaiotaomicron 0661. For the same molecule, the MIC in the assay with K. pneumoniae KY6445 was determined as 0.05 µg/mL; in the assay on P. maltophilia GIFU2491, 0.2 µg/mL. In addition, the values for the 50% effective dose (ED50) in the assay with E. coli ML 4707 (setting [3]) and in the assay on S. aureus Smith [2] (setting [4]) were 2.04 mg/kg and 6.08 mg/kg, respectively.
Turning to `COc1c(N2C[C@@H](C)[C@H](N)C2)c(F)cc2c(=O)c(C(=O)O)cn(C3CC3)c12` [Example 33, 7-[3(S)-amino-4(R)-methyl-l-pyrrolidinyl]-1-cyclopropyl-6-fluoro-1,4-dihydro-8-methoxy-4-oxo-3-quinolinecarboxylic acid hydrochloride], the MIC in the assay with S. epidermidis IID866 was 0.05 µg/mL; in the assay with E. cloacae IID977, 0.05 µg/mL; in the assay on S. pneumoniae type III, 0.05 µg/mL; in the assay with S. enteritidis IID604, 0.05 µg/mL; in the assay on P. mirabilis IID994, 0.05 µg/mL; in the assay with S. aureus Smith [1] it was 0.025 µg/mL. Also, the MIC with C. freundii IID976 is 0.05 µg/mL; in the assay with S. aureus 209P, 0.025 µg/mL; with A. anitratus IID876, 0.05 µg/mL; in the assay on S. pyogenes S-8, 0.05 µg/mL; in the assay on P. aeruginosa V-1, 0.2 µg/mL; in the assay with B. thetaiotaomicron 0661, 0.2 µg/mL. Further, the MIC in the assay with K. pneumoniae KY6445 came out at 0.025 µg/mL. In addition, the ED50 was determined as 0.31 mg/kg in the assay on E. coli ML 4707 (setting [3]) and 1.21 mg/kg with S. aureus Smith [2] (setting [4]).
Turning to `COc1c(N2C[C@@H](C)[C@@H](N)C2)c(F)cc2c(=O)c(C(=O)O)cn(C3CC3)c12.Cl` [Example 35, 7-[3(R)-amino-4(R)-methyl-1-pyrrolidinyl]-1-cyclopropyl-6-fluoro-1,4-dihydro-8-methoxy-4-oxo-3-quinolinecarboxylic acid hydrochloride], the MIC in the assay on S. epidermidis IID866 came to 0.05 µg/mL; in the assay with E. coli NIHJ JC-2, 0.025 µg/mL; in the assay with P. aeruginosa IFO12689, 1.56 µg/mL; with P. aeruginosa IID1210, 1.56 µg/mL; with P. mirabilis IID994, 0.05 µg/mL; in the assay with S. pneumoniae S-4288, 0.2 µg/mL. Also, the MIC with S. aureus Smith [1] worked out at 0.025 µg/mL; in the assay with S. pneumoniae IID552, 0.2 µg/mL; in the assay with E. faecalis IID682 it was 0.2 µg/mL; with C. perfringens KYA13123, 0.2 µg/mL; in the assay on S. aureus 209P, 0.025 µg/mL; in the assay on S. sonnei IID969 it was 0.025 µg/mL. Further, the MIC in the assay with P. vulgaris IFO3167 was 0.025 µg/mL; in the assay with A. anitratus IID876 it was 0.05 µg/mL; with S. pyogenes S-8, 0.2 µg/mL; in the assay on K. pneumoniae KY6445, 0.05 µg/mL. Also, the median effective dose (ED50) in the assay on E. coli ML 4707 (setting [3]) worked out at 1.11 mg/kg; in the assay with S. aureus Smith [2] (setting [4]) it was 2 mg/kg.

The record behind these values is patent EP0443498A1, “Isoindoline derivatives” (KYORIN PHARMACEUTICAL CO., LTD., priority 1990, dated 1991).
